For one assay, the system named is TNF-α. In words: ELISA of TNF-α in palm acid oil-treated vascular endothelial cells. In kind it is cell-based, mouse. The method, then: (§1) Vascular endothelial cells (SVEC4-10) were purchased from the Cell Bank of Hsin-Chu Food Industry Development Institute (FIRDI, Cat no: BCRC-60220). SVEC4-10 cells were cultured in high-glucose DMEM (Dulbecco's Modified Eagle Medium) (Gibco BRL, Grand Island, NY, USA) and supplemented with 10% Fetal Bovine Serum (FBS) (HyClone, Logan, UT, USA), 1.5 g/L sodium bicarbonate, 0.11 g/L sodium pyruvate, 4 mM L-glutamine, 100 U/mL penicillin, and 100 μg/mL streptomycin (Gibco BRL, Grand Island, NY, USA).
(§2) These cells were grown in a culture medium and maintained in a humidified incubator at 37° C. and 5% CO2. Vascular endothelial cells were digested with 0.25% trypsin (Gibco BRL, Grand Island, NY, USA) for approximately 1 min until most cells detached. All cell densities were adjusted to 1×10^5 cells per well for each 24-well culture plate. After vascular endothelial cells were cultured for 24 h, in the hyperlipidemia group, 0.75 mM palm acid oil (CAS 57-10-3-800508; Sigma-Aldrich Co., St. Louis, MO, USA) (Oh et al., 2018) was added, and 10, 20, and 50 μg/mL of antcin K in each experiment was individually added.
(§3) We analyzed the content of inflammatory cytokines by ELISA. The supernatant of SVEC4-10 cells with palm acid oil hyperlipidemia treatment was collected after 24 h of culture and added to a 96-well micro-well plate (Thermo Scientific Nunc®, Nunc AS, Copenhagen, Denmark). An amount of 100 μL/well of carbonate buffer containing antibodies of 32 ng/mL purified rat anti-mouse TNF-α (88-7324; Invitrogen, Carlsbad, CA, USA) or 32 ng/mL purified rat anti-mouse IL-1_(88-7013; Invitrogen, Carlsbad, CA, USA) was added to each well and kept at 4° C. overnight. After that, we washed three times with 0.05% phosphate-buffered saline with Tween 20 (PBST) buffer to remove unbound monoclonal antibodies. Then, we added 200 μL/well of blocking solution to reduce nonspecific binding. […] The reaction was terminated with 2% H2SO4, and the absorbance at 450-570 nm was measured.
For orientation: An ELISA detects its analyte on a solid surface through an enzyme-linked reagent.

A further assay has as its system RAW264.7 macrophages. Description: Cellular migration assay (transwell). Particulars: 48 h. In kind it is cell-based. The method, then: RAW264.7 macrophage was purchased from the Hsin-Chu Food Industry Development Institute Cell Bank (FIRDI, Cat no: BCRC-60001). The cell culture medium contains high-glucose DMEM (Gibco BRL, Grand Island, NY, USA), 10% FBS, 1.5 g/L sodium bicarbonate, 0.11 g/L sodium pyruvate, 4 mM L-glutamine, 100 U/mL penicillin, and 100 μg/mL streptomycin. These cells were maintained in a humidified incubator at 37° C. and 5% CO2. After collecting the cells with a spatula, for each 24-well culture plate, all cell densities were adjusted to 1×10^5 cells per well for migration assays.
We used a cellular migration assay to examine the cellular migration ability of RAW 264.7 macrophages toward vascular endothelial cells with high-fat damage. The cellular migration assay has been clearly described in a previous report (Hwang et al., 2021). Transwells (Corning, New York, NY, USA) with 8.0 μm pore size were used in this experiment for cell migration assays. In total, 1×10^5 RAW264.7 macrophage, labeled with the red fluorescent dye of 1,1′-Dioctadecyl-6,6′-Di(4-Sulfophenyl) (SP-Di1C18(3)), was added to the upper layer of transwell after 48 h. […] Images were taken with a fluorescence microscope (Leica Microsystems, Wetzlar, Germany), and analysis was performed using Leica Application Suite software (LAS) V4.12 s (Leica Microsystems, Wetzlar, Germany) after 48 h of culture.

A further assay deals with CD36. In words: Immunofluorescence staining of CD36 in vascular endothelial cells. It is filed as cell-based, mouse. To be noted: 20 μg/mL with 0.75 mM palm acid oil. Here is the method: as §1
These cells were grown in a culture medium and maintained in a humidified incubator at 37° C. and 5% CO2. […]
We used immunofluorescence staining to examine expressions of KLF4 and CD36. […] Note that this step needs to be protected from light at the beginning Nuclei were stained with 1 μg/mL diamino-2-phenilindole (DAPI) (D3286, Sigma-Aldrich Co., St. Louis, MO, USA) for 10 min at room temperature after washing three times with PBS and mounted with a fluorescent protectant-containing adhesive to reduce fluorescence decay. Fluorescent images were obtained using a Leica DM IRB inverted fluorescence microscope (Leica Microsystems, Wetzlar, Germany), and analysis was performed using Leica Application Suite software (LAS) V4.12 s (Leica Microsystems, Wetzlar, Germany). The Rhodamine fluorescence-labeled cytoskeleton was visualized at 565 nm by exciting cells at 540 nm. […]

Another assay deals with IL-1β. Description: ELISA of IL-1β in palm acid oil-treated vascular endothelial cells. In kind it is cell-based, mouse. Here is the method:
as §1, §2, §3

With `C=C(CC[C@@H](C)[C@H]1CC[C@H]2C3=C(C(=O)C[C@]12C)[C@@]1(C)CC[C@H](O)[C@](C)(O)C1CC3O)C(C)C(=O)O` (some centres unmarked) [antcin K, 3a,4b,7b-tri-hydroxy4a-methylergosta-8,24(28)-dien-11-on-26-oic acid], the “expression of TNF-α of vascular endothelial cells” value with TNF-α (10 μg/mL with 0.75 mM palm acid oil (285.5 without)) was 178.8 pg/mL; in the assay with TNF-α (20 μg/mL with 0.75 mM palm acid oil (285.5 without)) it was 180.3 pg/mL; with TNF-α (50 μg/mL with 0.75 mM palm acid oil (285.5 without)) it was 181.0 pg/mL. Moreover, the “migration of RAW264.7 macrophages to palm acid oil-treated vascular endothelial cells” value in the assay with RAW264.7 macrophages is “enhanced”. The “expression of CD36 in palm oil-treated vascular endothelial cells” value in the assay with CD36 is given as “decreased”. The “expression of IL-1β of vascular endothelial cells” value with IL-1β (10 μg/mL with 0.75 mM palm acid oil (86.6 without)) was 70.2 pg/mL; in the assay with IL-1β (20 μg/mL with 0.75 mM palm acid oil (86.6 without)), 69.3 pg/mL; in the assay on IL-1β (50 μg/mL with 0.75 mM palm acid oil (86.6 without)), 71.5 pg/mL.

These data come from patent publication US12636292B2, “Method and composition for reversing and/or inhibiting atherosclerosis” (ARJIL BIOTECH HOLDING COMPANY LIMITED, priority 2019, dated 2026).
